Experimental data published in PMC11091117, “A fluorescently-tagged tick kinin neuropeptide triggers peristalsis and labels tick midgut muscles” (Scientific Reports, 2024).
Entries after “also recorded” stand apart in the source; their conditions may differ.

What was measured:
[1] = system: tick kinin receptor in midgut muscles; test: Fluorescent labeling of live midgut ex vivo, confocal microscopy; assay type: binding, Rhipicephalus sanguineus
Excerpt: Three peptides were used in this study. These included: 1) the ligand for the endogenous tick kinin receptor from Rhipicephalus sanguineus, Rhisa-kinin 8 peptide of sequence GTGEDQAFSPWGamide (Rhisa-K-8; RK8; of identical sequence to Rhimi-K-8 in Rhipicephalus microplus)[48], 2) the same peptide but fluorescently labeled at the N-terminus with tetramethylrhodamine (TMR) a red fluorescent dye, designated TMR-Rhisa-K-8 (TMR-RK8), and 3) a labeled peptide synthesized with the scrambled sequence of the kinin ligand, designated TMR-Scrambled. The sequence of TMR-RK8 was TMR-C-GTGEDQAFSPWGamide). The TMR-Scrambled kinin (TMR-C-GTQWGPGFEADSamide) served as a negative control for tissue labeling. All peptides were custom-synthesized and purchased from GenScript (Piscataway, NJ, USA) with a purity of ≥ 95% and the cysteine in bold in both sequences was added to attach the label. Experiments were replicated with independently synthesized batches (4 mg each) of labeled and unlabeled peptides, for reproducibility. Unlabeled RK8 was used as a competitive ligand to verify target-specific binding of the labeled TMR-RK8 (see Ligand Competition Assay). For cell assays, the peptide stock solutions (100 µM) were made in 1% dimethyl sulfoxide (DMSO) in Hank’s balanced salt solution (HBSS, Thermo Fisher, Waltham, USA). For fluorescent cell labeling, peptide working solutions (10 µM) were prepared in HBSS from stock solutions. For assays on the midgut, peptides were solubilized and diluted in a tick physiological saline consisting of 140 mM NaCl, 5 mM KCl, 1 mM MgCl2, 5 mM CaCl2, 4 mM NaHCO3, and 5 mM HEPES, pH 7.2[49].
Individual female ticks were immobilized on a Petri dish filled with wax by submerging their legs in melted wax heated with a soldering pencil (Electronic Control Soldering Station EC 1000, Weller, Apex, North Carolina, USA). Females were dissected under physiological saline following the protocol described by Tidwell et al.[51]. The tick was cut along the edge of the scutum/alloscutum using a stainless steel #12 scalpel blade (Integra Miltex, York, PA, USA), after which the scutum was removed with a pair of fine forceps. To expose the midgut for removal, the tracheae, Malpighian tubules, ovaries, rectal sac, and synganglion were removed with fine forceps in that order. The midgut was then carefully removed and placed into 200 µL of fresh tick saline (See Reagents and Peptides) on a single gasketed incubation chamber (500 µL, Size 22 × 40 mm, Electron Microscopy Sciences, Hatfield, PA). The midguts were then rinsed three times with the physiological tick saline for subsequent fluorescent labeling or activity experiments.
To determine the location of the tick kinin receptor in the midgut of ticks, a commercially synthesized Rhisa-kinin peptide 8[52] conjugated with a stable, red fluorophore (TMR-RK8) or a similarly labeled peptide of scrambled sequence (TMR-Scrambled) were applied to freshly dissected midguts ex vivo. For this, midguts of unfed adult females were incubated in ice-cold saline for 10 min. The saline was removed before incubation in 200 µL of 4’,6-diamidino-2-phenylindole dihydrochloride (DAPI, Sigma, 1 µg/mL in saline) for 1 min and rinsed with saline (200 µL) once. After saline removal, the midgut was incubated for 1 min with 200 µL of 10 µM of either TMR-Scrambled kinin or TMR-RK8, then the labeled peptide solution was removed by pipette and the midgut was rinsed twice with 200 µL saline. […]

[2] = system: vector-only (V/O) CHO-K1 cells; test: Fluorescence microscopy validation of labeled peptide specificity on live vector-only cells; assay type: binding; conditions: 1 µM TMR-RK8, 5 min at room temperature, HBSS; Zeiss Axio Observer, BPTmX channel
Description: BMLK3 and vector-only cells were cultured in selective media (F-12K medium containing 10% fetal bovine serum and 800 µg/mL-1 of G418 sulfate), cells were seeded in […] (CELLSTAR®, Greiner Bio-One®, Monroe, NC USA) at 20,000 cells per well and were incubated overnight. The next assay, the cell culture medium was removed, and cells were rinsed twice with 200 µl DPBS, and 180 µl of HBSS buffer was added into each well. The peptide stock solutions were prepared in 1% DMSO in HBSS at 100 µM. TMR-RK8 (20 µl) was added into each well and incubated with the cells for 5 min at room temperature. The medium was then removed with a pipette and the cells were rinsed twice with 200 µl HBSS, and DAPI (VECTASHIELD® H-1200, Vector Laboratories) was added (20 µl of 0.15 µg/ml) for visualizing the cell nuclei. Cells were rinsed twice with 200 µl of HBSS, and finally 180 µl HBSS per well was added.
The cells were immediately imaged under a Zeiss Axio Observer® inverted fluorescence microscope. The exposure time for the Bodipy-Tetramethylrhodamine-X (BPTmX) fluorescence channel was the same for BMLK3 cells and V/O cells. DAPI imaging was done subsequently using the same focal height as the BPTmx channel.

TMR-C-GTGEDQAFSPWGamide [TMR-RK8]
displacement of TMR-RK8 label by phalloidin (in words) ([1]; 10 µM TMR-RK8, Alexa Fluor 488 Phalloidin 15 min, midgut muscle fibers): no observed phalloidin displacement of the TMR-RK8 label | non-specific labeling below midgut surface (in words) ([1]; 10 µM labeled peptide, 1 min, midguts ex vivo, Z-slices under the surface): aggregation of TMR-RK8 signal in what appears to be lipid vesicles; also recorded: non-specific labeling observed in lipid vesicles inside the midgut | labeling of midgut surface muscles (in words) ([1]; 10 µM labeled peptide, 1 min, tick saline pH 7.2, midguts of unfed females ex vivo, DAPI and Alexa 488-phalloidin, confocal 20X/40X): labeled the kinin receptor in muscles; also recorded: localized the kinin receptor to both circular and longitudinal muscles; also recorded: signal was observed in the tick midgut muscles under confocal microscopy; also recorded: observed only on the surface of the midgut; also recorded: binding specifically to the circular (white arrowheads) and longitudinal (white arrows) muscles | labeling of vector-only cells, Fig. S1 (in words) [2]: only observed in the BLMK3 cells
